From article PMC5224920, “Assessing the mechanism and therapeutic potential of modulators of the human Mediator complex-associated protein kinases” (eLife, 2016)
Where two headings read alike, the source gives them in different places.

Legend:
SW837 [1] = assay: 24 hour TCF/LEF reporter assay, SW837; format: cell-based; settings: Homo sapiens, SW837, 24 h, read-out: 24 hour TCF/LEF Reporter assay IC50
p-STAT1^SER727 = assay: Inhibition of STAT1 SER727 phosphorylation in cells (target-engagement biomarker)
COLO205 [2] = assay: 96 hour proliferation GI50, COLO205; settings: Homo sapiens, COLO 205, 96 h, read-out: 96 hour GI50
DLD1 [3] = assay: 96 hour proliferation GI50, DLD1; settings: Homo sapiens, DLD-1, 96 h, read-out: 96 hour GI50
SW948 = assay: 96 hour proliferation GI50, SW948; settings: Homo sapiens, SW948, 96 h, read-out: 96 hour GI50
HT29 = assay: 96 hour proliferation GI50, HT29; settings: Homo sapiens, HT-29, 96 h, read-out: 96 hour GI50
Beagle dogs = assay: 14-day oral tolerability study in dogs; settings: Dog, low dose 5 mg/kg daily oral for 14 days
LS174T [4] = assay: 96 hour proliferation GI50, LS174T; settings: Homo sapiens, read-out: 96 hour GI50
[5] = test system: mouse KS483 osteoprogenitor cells; assay: Bone formation assay in KS483 osteoprogenitor cells (PINP, calcium); format: cell-based; settings: 13 d
Procedure: Bone formation assays were conducted by Pharmatest (Finland) in mouse KS483 osteoprogenitor cells cultured for 13 d with LGK974 or 3. The amount of PINP secreted into the culture medium, and calcium deposition, were measured by ELISA (Roche Diagnostics, UK).

[6] = test system: SW620 human colorectal cancer xenografts; assay: SW620 human colorectal cancer xenograft, tumor growth inhibition; format: in vivo
RKO [7] = assay: 24 hour reporter assay, RKO negative control (EEF1A1 promoter-reporter); format: cell-based; settings: Homo sapiens, RKO, read-out: 24 hour TCF/LEF Reporter assay IC50
Mouse PK = format: in vivo; settings: 0.2mg/kg i.v.
LS180 [8] = assay: 24 hour TCF/LEF reporter assay, LS180; format: cell-based; settings: Homo sapiens, LS180, 24 h, read-out: 24 hour TCF/LEF Reporter assay IC50
LS513 = assay: 96 hour proliferation GI50, LS513; settings: Homo sapiens, LS-513, 96 h, read-out: 96 hour GI50
LS174T [9] = assay: LS174T basal WNT-pathway luciferase reporter; settings: Homo sapiens, LS174T, read-out: LS174T IC50
SW620 = assay: 96 hour proliferation GI50, SW620; settings: Homo sapiens, SW-620, 96 h, read-out: 96 hour GI50
SW837 [10] = assay: 96 hour proliferation GI50, SW837; settings: Homo sapiens, SW837, 96 h, read-out: 96 hour GI50
[11] = test system: LS1034 colorectal cancer xenografts; assay: LS1034 colorectal cancer xenograft, tumor growth inhibition; format: in vivo, human; settings: 30 x 1 (5/7 d) mg/kg x doses/day, day 21, P <0.001
COLO205 [12] = assay: 24 hour TCF/LEF reporter assay, COLO205; format: cell-based; settings: Homo sapiens, COLO 205, 24 h, read-out: 24 hour TCF/LEF Reporter assay IC50
Rat PK = format: in vivo; settings: 0.2mg/kg i.v.
Wistar rats = assay: 14-day oral tolerability study in rats; format: in vivo; settings: Rat
From the text: Animals were culled 24 hr after the last dose. Additional satellite animals for toxicokinetic evaluations were included.

LS174T [13] = assay: 24 hour TCF/LEF reporter assay, LS174T; format: cell-based; settings: Homo sapiens, read-out: 24 hour TCF/LEF Reporter assay IC50
[14] = test system: p-STAT1^SER727 in SW620 tumor xenografts; assay: p-STAT1 SER727 level in SW620 xenografts (pharmacodynamics); format: in vivo, human; settings: SW620 tumor xenografts; single treatment with 30 mg/kg
Procedure: As with 3, 10 mg/kg of 4 inhibited the pathway biomarker for 6 hr, but was not sufficient for antitumor activity in SW620 xenografts (Figure 2A and Figure 2—source data 1).

MV-4-11 AML xenograft = assay: MV-4-11 AML subcutaneous xenograft; format: in vivo, human; settings: 10 mg/kg po qd monotherapy
Dog PK = format: in vivo; settings: 0.2mg/kg i.v.
LS180 [15] = assay: 96 hour proliferation GI50, LS180; settings: Homo sapiens, LS180, 96 h, read-out: 96 hour GI50
RKO [16] = assay: 96 hour proliferation GI50, RKO; settings: Homo sapiens, read-out: 96 hour GI50
DLD1 [17] = assay: 24 hour TCF/LEF reporter assay, DLD1; format: cell-based; settings: Homo sapiens, DLD-1, 24 h, read-out: 24 hour TCF/LEF Reporter assay IC50

Structure (SMILES): Cn1ncc2cc(-c3cnc(N)c(Cl)c3N3CCC4(CCNC4=O)CC3)ccc21 [CMPD 3]
- IC50 (SW837 [1]): 14 nM
- IC50 (p-STAT1^SER727; read-out: p-STAT1^SER727 IC50, mean ± s.d. or *± range): 22 ± 12 nM
- IC50 (p-STAT1^SER727; read-out: p-STAT1^SER727 IC50; mean ± s.d. or *± range): 25.5 ± 12 nM
- GI50 (COLO205 [2]): > 30000 nM
- GI50 (DLD1 [3]): > 30000 nM
- GI50 (SW948): > 30000 nM
- GI50 (HT29): > 30000 nM
- Target organs (Beagle dogs): Bone marrow, gastrointestinal mucosa, heart, lymphatic system
- GI50 (LS174T [4]): > 30000 nM
- Calcium deposition [5]: inhibited in a concentration-dependent manner
- PINP secretion [5]: stimulated PINP secretion at low concentrations and inhibited PINP secretion at higher concentrations
- TGI ([6]; 5 x 1 mg/kg x doses/day, day 14, nr = no response, P ns): nr
- TGI ([6]; 10 x 1 mg/kg x doses/day, day 14, P ns): 33%
- TGI ([6]; 30 x 1 mg/kg x doses/day, day 14, 8 mice, P <0.05): 48%
- TGI ([6]; 30 x 1b mg/kg x doses/day, day 14, 9 mice, P <0.01): 44%
- TGI ([6]; 30 x 2 (5/7 d) and x 1 (2/7 d)e mg/kg x doses/day, day 14, P <0.01): 44%
- IC50 (RKO [7]): > 30000 nM
- Mouse PK Cl (Mouse PK): 10.2 mL/min/kg
- Mouse PK Vd (Mouse PK): 0.63 L/kg
- IC50 (LS180 [8]): 28 nM
- GI50 (LS513): > 30000 nM
- IC50 (LS174T [9]): 33.3 ± 12.8 nM
- GI50 (SW620): 1860 nM
- GI50 (SW837 [10]): 3110 nM
- TGI [11]: 55%
- IC50 (COLO205 [12]): 15 nM
- Rat PK Cl (Rat PK): 24.8 mL/min/kg
- Rat PK Vd (Rat PK): 1.99 L/kg
- Target organs (Wistar rats; high dose 20 mg/kg daily oral for 14 days (CMPD 3)): Bone, bone marrow, heart, liver, lung, lymph nodes, pancreas, reproductive tract (m and f), spleen, thymus.
- Target organs (Wistar rats; low dose 5 mg/kg daily oral for 14 days): Bone, bone, marrow, heart, liver, lung, lymph nodes, pancreas, reproductive tract (m), spleen, thymus.
- Target organs (Wistar rats; mid dose 10 mg/kg daily oral for 14 days (CMPD 3)): Bone, bone marrow, heart, liver, lung, lymph nodes, pancreas, reproductive tract (m and f), spleen, thymus.
- IC50 (LS174T [13]): 39 nM
- Time biomarker (p-STAT1^SER727) inhibition maintained [14]: approximately 10 hr
- TGI (MV-4-11 AML xenograft): 100%
- Dog PK Cl (Dog PK): 17.8 mL/min/kg
- Dog PK Vd (Dog PK): 1.4 L/kg
- GI50 (LS180 [15]): 6670 nM
- GI50 (RKO [16]): > 30000 nM
- IC50 (DLD1 [17]): 173 nM
